From US8338565B2, “Macrocyclic compounds for inhibition of tumor necrosis factor alpha” (Ensemble Therapeutics Corporation, priority 2008, dated 2012)
Numbered stars: 1 amine (or outer) side, 2 acyl side, 3 side chain; on linkers, the order of the positions; unused ones are H or OH. Bridge positions count the residues as written; N and C are the ends. Square brackets hold non-standard residues; d marks the D form. Peptide text beside a SMILES is read from it. Tartaroyl(2R,3R-(OAc)2) = CC(=O)O[C@@H](C(=O)[*:1])[C@@H](OC(C)=O)C(=O)[*:2]; Phe(4-COOH) = N[C@@H](Cc1ccc(C(=O)O)cc1)C(=O)O; Phe(2,4-Cl2) = N[C@@H](Cc1ccc(Cl)cc1Cl)C(=O)O; Bip = N[C@@H](Cc1ccc(-c2ccccc2)cc1)C(=O)O; dPhe(4-NH2) = Nc1ccc(C[C@@H](N)C(=O)O)cc1; Phe(4-NH2) = Nc1ccc(C[C@H](N)C(=O)O)cc1; d(hPhe) = N[C@H](CCc1ccccc1)C(=O)O; d2Thi = N[C@H](Cc1cccs1)C(=O)O; Suc = O=C(CCC(=O)[*:2])[*:1]; Dap = NC[C@H](N)C(=O)O; GABA = NCCCC(=O)O

Molecular target: T1, TNFα / TNFα receptor (TNFα R1/Fc) (Homo sapiens, UniProt P01375)
T1 construct: purchased R&D Systems
T1 sequence (P01375 77-233 limits assumed, species assumed): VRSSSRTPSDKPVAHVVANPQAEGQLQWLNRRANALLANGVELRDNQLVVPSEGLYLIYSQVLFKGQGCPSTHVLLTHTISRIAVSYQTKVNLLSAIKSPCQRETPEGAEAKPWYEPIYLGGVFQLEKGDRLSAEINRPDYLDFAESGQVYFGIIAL
Experiment: Inhibition of binding of TNFα to the TNFα receptor (plate ELISA competition)
Conditions: Table 2; read-out: Activity (IC50, inhibition of TNFα binding to TNFα R1/Fc)
Outline: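 Plates were coated with TNFα at 15 nM. Test compound and 8.33 nM receptor-Fc (PBST, 2% DMSO) were first mixed in solution for 30 min at room temperature, then transferred to the plates for another 30 min. Competition was read by absorbance at 450 nm after HRP anti-human IgG Fc detection with TMB.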

Row | Compound | IC50
1 | CC(=O)O[C@H]1C(=O)Nc2ccc(cc2)C[C@H](C(=O)O)NC(=O)[C@@H](Cc2ccccc2)NC(=O)[C@H](Cc2ccc(Cl)cc2Cl)NC(=O)[C@@H](Cc2ccccc2)NC(=O)[C@@H]1OC(C)=O [Compound 233] ([dF][Phe(2,4-Cl2)][dF][dPhe(4-NH2)]-OH; linker N-4 via Tartaroyl(2R,3R-(OAc)2)) | 30 to 100 µM
2 | CC(=O)O[C@H]1C(=O)Nc2ccc(cc2)C[C@H](C(=O)O)NC(=O)[C@@H](Cc2ccccc2)NC(=O)[C@H](Cc2ccc(Cl)cc2Cl)NC(=O)[C@@H](Cc2cccs2)NC(=O)[C@@H]1OC(C)=O [Compound 234] ([d2Thi][Phe(2,4-Cl2)][dF][dPhe(4-NH2)]-OH; linker N-4 via Tartaroyl(2R,3R-(OAc)2)) | > 100 µM
3 | CC(=O)O[C@H]1C(=O)Nc2ccc(cc2)C[C@@H](C(=O)O)NC(=O)[C@@H](CCc2ccccc2)NC(=O)[C@H](Cc2ccc(-c3ccccc3)cc2)NC(=O)[C@@H](Cc2ccccc2)NC(=O)[C@@H]1OC(C)=O [Compound 235] ([dF][Bip][d(hPhe)][Phe(4-NH2)]-OH; linker N-4 via Tartaroyl(2R,3R-(OAc)2)) | 10 to 30 µM
4 | O=C1N[C@H](CCc2ccccc2)C(=O)N[C@@H](C(=O)O)Cc2ccc(cc2)NC(=O)[C@H](O)[C@@H](O)C(=O)N[C@H](Cc2cccs2)C(=O)N[C@H]1Cc1ccc(Br)cc1 [Compound 238] | < 10 µM
5 | O=C1N[C@H](CCc2ccccc2)C(=O)N[C@@H](C(=O)O)Cc2ccc(cc2)NC(=O)[C@H](O)[C@@H](O)C(=O)N[C@H](Cc2cccs2)C(=O)N[C@H]1Cc1ccc(Cl)cc1Cl [Compound 240] | 10 to 30 µM
6 | O=C1N[C@H](Cc2ccccc2)C(=O)N[C@@H](C(=O)O)Cc2ccc(cc2)NC(=O)[C@H](O)[C@@H](O)C(=O)N[C@H](Cc2ccccc2)C(=O)N[C@H]1Cc1ccc(-c2ccccc2)cc1 [Compound 241] | 30 to 100 µM
7 | O=C1N[C@H](Cc2ccccc2)C(=O)N[C@@H](C(=O)O)Cc2ccc(cc2)NC(=O)[C@H](O)[C@@H](O)C(=O)N[C@H](Cc2cccs2)C(=O)N[C@H]1Cc1ccc(Br)cc1 [Compound 242] | 30 to 100 µM
8 | O=C1N[C@H](Cc2ccccc2)C(=O)N[C@@H](C(=O)O)Cc2ccc(cc2)NC(=O)[C@H](O)[C@@H](O)C(=O)N[C@H](Cc2ccccc2)C(=O)N[C@H]1Cc1ccc(Cl)cc1Cl [Compound 243] | 30 to 100 µM
9 | O=C1N[C@H](Cc2ccccc2)C(=O)N[C@@H](C(=O)O)Cc2ccc(cc2)NC(=O)[C@H](O)[C@@H](O)C(=O)N[C@H](Cc2cccs2)C(=O)N[C@H]1Cc1ccc(Cl)cc1Cl [Compound 244] | 30 to 100 µM
10 | O=C(O)[C@@H]1Cc2ccc(cc2)NC(=O)[C@H](O)[C@@H](O)C(=O)N[C@H](Cc2ccccc2)C(=O)N[C@@H](Cc2ccc(-c3ccccc3)cc2)C(=O)N[C@H](CCc2ccccc2)C(=O)N1 [Compound 245] | 10 to 30 µM
11 | O=C(O)[C@@H]1Cc2ccc(cc2)NC(=O)[C@H](O)[C@@H](O)C(=O)N[C@H](CCc2ccccc2)C(=O)N[C@@H](Cc2ccc(-c3ccccc3)cc2)C(=O)N[C@H](Cc2ccccc2)C(=O)N1 [Compound 246] | 30 to 100 µM
12 | O=C1CNC(=O)c2ccc(cc2)C[C@@H](C(=O)O)NC(=O)[C@@H](Cc2ccccc2)NC(=O)[C@H](Cc2ccc(-c3ccccc3)cc2)NC(=O)[C@@H](CCc2ccccc2)N1 [Compound 247] (G[d(hPhe)][Bip][dF][Phe(4-COOH)]-OH; lactam N-5) | > 100 µM
13 | O=C1CCCNC(=O)c2ccc(cc2)C[C@@H](C(=O)O)NC(=O)[C@@H](Cc2ccccc2)NC(=O)[C@H](Cc2ccc(-c3ccccc3)cc2)NC(=O)[C@@H](CCc2ccccc2)N1 [Compound 249] ([GABA][d(hPhe)][Bip][dF][Phe(4-COOH)]-OH; lactam N-5) | > 100 µM
14 | O=C1COc2ccc(cc2)C[C@@H](C(=O)O)NC(=O)[C@@H]2CCCN2C(=O)[C@@H](Cc2ccc(-c3ccccc3)cc2)NC(=O)[C@H](Cc2cccs2)N1 [Compound 250] | > 100 µM
15 | O=C1CN(Cc2ccccc2)C(=O)[C@@H](Cc2ccc(-c3ccccc3)cc2)NC(=O)[C@H](Cc2cccs2)NC(=O)COc2ccc(cc2)C[C@@H](C(=O)O)N1 [Compound 253] | > 100 µM
16 | O=C1COc2ccc(cc2)C[C@@H](C(=O)O)NC(=O)[C@H](CCc2ccccc2)NC(=O)[C@H](Cc2ccc(-c3ccccc3)cc2)NC(=O)[C@H](Cc2cccs2)N1 [Compound 254] | 10 to 30 µM
17 | O=C1COc2ccc(cc2)C[C@@H](C(=O)O)NC(=O)[C@@H]2CCCN2C(=O)[C@H](Cc2ccc(-c3ccccc3)cc2)NC(=O)[C@H](Cc2cccs2)N1 [Compound 255] | > 100 µM
18 | CC(=O)NCCCC[C@@H]1NC(=O)[C@H](Cc2ccc(-c3ccccc3)cc2)NC(=O)[C@H](Cc2cccs2)NC(=O)COc2ccc(cc2)C[C@@H](C(=O)O)NC1=O [Compound 256] | > 100 µM
19 | O=C1CN(Cc2ccccc2)C(=O)[C@H](Cc2ccc(-c3ccccc3)cc2)NC(=O)[C@H](Cc2cccs2)NC(=O)COc2ccc(cc2)C[C@@H](C(=O)O)N1 [Compound 257] | > 100 µM
20 | O=C(O)CC[C@@H]1NC(=O)[C@H](Cc2ccc(-c3ccccc3)cc2)NC(=O)[C@H](Cc2cccs2)NC(=O)COc2ccc(cc2)C[C@@H](C(=O)O)NC1=O [Compound 258] | > 100 µM

Row | Compound | IC50
21 | CC(C)(C)OC(=O)CC[C@@H]1NC(=O)[C@H](Cc2ccc(-c3ccccc3)cc2)NC(=O)[C@H](Cc2cccs2)NC(=O)COc2ccc(cc2)C[C@@H](C(=O)O)NC1=O [Compound 259] | 30 to 100 µM
22 | N#Cc1ccc(C[C@H]2NC(=O)[C@H](O)[C@@H](O)C(=O)Nc3ccc(cc3)C[C@@H](C(=O)O)NC(=O)[C@@H](Cc3ccccc3)NC(=O)[C@H](Cc3ccc(-c4ccccc4)cc3)NC2=O)cc1 [Compound 260] | 30 to 100 µM
23 | O=C(O)[C@@H]1Cc2ccc(cc2)NC(=O)[C@H](O)[C@@H](O)C(=O)N[C@H](Cc2ccc(F)cc2)C(=O)N[C@@H](Cc2ccc(-c3ccccc3)cc2)C(=O)N[C@H](Cc2ccccc2)C(=O)N1 [Compound 261] | 30 to 100 µM
24 | O=C(O)[C@@H]1Cc2ccc(cc2)NC(=O)[C@H](O)[C@@H](O)C(=O)N[C@H](Cc2ccc(F)c(F)c2)C(=O)N[C@@H](Cc2ccc(-c3ccccc3)cc2)C(=O)N[C@H](Cc2ccccc2)C(=O)N1 [Compound 262] | 10 to 30 µM
25 | O=C(O)[C@@H]1Cc2ccc(cc2)NC(=O)[C@H](O)[C@@H](O)C(=O)N[C@H](Cc2ccc(C(F)(F)F)cc2)C(=O)N[C@@H](Cc2ccc(-c3ccccc3)cc2)C(=O)N[C@H](Cc2ccccc2)C(=O)N1 [Compound 263] | > 100 µM
26 | Cc1ccc(C[C@H]2NC(=O)[C@H](O)[C@@H](O)C(=O)Nc3ccc(cc3)C[C@@H](C(=O)O)NC(=O)[C@@H](Cc3ccccc3)NC(=O)[C@H](Cc3ccc(-c4ccccc4)cc3)NC2=O)cc1 [Compound 264] | > 100 µM
27 | N[C@H]1CNC(=O)c2ccc(cc2)C[C@@H](C(=O)O)NC(=O)[C@@H](Cc2ccccc2)NC(=O)[C@H](Cc2ccc(-c3ccccc3)cc2)NC(=O)[C@@H](CCc2ccccc2)NC1=O [Compound 265] (H-[Dap][d(hPhe)][Bip][dF][Phe(4-COOH)]-OH; lactam 1-5) | > 100 µM
28 | CC(=O)N[C@H]1CNC(=O)c2ccc(cc2)C[C@@H](C(=O)O)NC(=O)[C@@H](Cc2ccccc2)NC(=O)[C@H](Cc2ccc(-c3ccccc3)cc2)NC(=O)[C@@H](CCc2ccccc2)NC1=O [Compound 266] (Ac-[Dap][d(hPhe)][Bip][dF][Phe(4-COOH)]-OH; lactam 1-5) | > 100 µM
29 | O=C(O)CCC(=O)N[C@H]1CNC(=O)c2ccc(cc2)C[C@@H](C(=O)O)NC(=O)[C@@H](Cc2ccccc2)NC(=O)[C@H](Cc2ccc(-c3ccccc3)cc2)NC(=O)[C@@H](CCc2ccccc2)NC1=O [Compound 267] (Suc-[Dap][d(hPhe)][Bip][dF][Phe(4-COOH)]-OH; lactam 1-5) | > 100 µM
30 | O=C(O)[C@@H]1Cc2ccc(cc2)NC(=O)[C@H](O)[C@@H](O)C(=O)N[C@H](Cc2cccs2)C(=O)N[C@@H](Cc2ccc(-c3ccccc3)cc2)C(=O)N[C@@H](Cc2ccccc2)C(=O)N1 [Compound 268] | > 100 µM
31 | O=C(O)[C@@H]1Cc2ccc(cc2)NC(=O)[C@H](O)[C@@H](O)C(=O)N[C@H](Cc2cccs2)C(=O)N[C@H](Cc2ccc(-c3ccccc3)cc2)C(=O)N[C@H](Cc2ccccc2)C(=O)N1 [Compound 269] | > 100 µM
32 | O=C(O)[C@@H]1Cc2ccc(cc2)NC(=O)[C@H](O)[C@@H](O)C(=O)N[C@@H](Cc2cccs2)C(=O)N[C@@H](Cc2ccc(-c3ccccc3)cc2)C(=O)N[C@H](Cc2ccccc2)C(=O)N1 [Compound 270] | > 100 µM
33 | O=C(O)[C@@H]1Cc2ccc(cc2)NC(=O)[C@H](O)[C@@H](O)C(=O)N[C@@H](Cc2cccs2)C(=O)N[C@H](Cc2ccc(-c3ccccc3)cc2)C(=O)N[C@@H](Cc2ccccc2)C(=O)N1 [Compound 271] | > 100 µM
34 | O=C(O)[C@@H]1Cc2ccc(cc2)NC(=O)[C@H](O)[C@@H](O)C(=O)N[C@@H](Cc2cccs2)C(=O)N[C@H](Cc2ccc(-c3ccccc3)cc2)C(=O)N[C@H](Cc2ccccc2)C(=O)N1 [Compound 272] | > 100 µM
35 | O=C(O)[C@@H]1Cc2ccc(cc2)NC(=O)[C@H](O)[C@@H](O)C(=O)N[C@H](Cc2cccs2)C(=O)N[C@H](Cc2ccc(-c3ccccc3)cc2)C(=O)N[C@@H](Cc2ccccc2)C(=O)N1 [Compound 274] | > 100 µM
36 | O=C1N[C@@H](C(=O)O)Cc2ccc(cc2)NC(=O)[C@H](O)[C@@H](O)C(=O)N[C@H](Cc2cccs2)C(=O)N[C@@H](Cc2ccc(-c3ccccc3)cc2)C(=O)N[C@H]1Cc1ccccc1 [Compound 275] | > 100 µM
37 | O=C(O)[C@H]1Cc2ccc(cc2)NC(=O)[C@H](O)[C@@H](O)C(=O)N[C@H](Cc2cccs2)C(=O)N[C@H](Cc2ccc(-c3ccccc3)cc2)C(=O)N[C@H](Cc2ccccc2)C(=O)N1 [Compound 276] | > 100 µM
38 | O=C1N[C@H](Cc2ccccc2)C(=O)N[C@@H](C(=O)O)Cc2ccc(cc2)NC(=O)[C@H](O)[C@@H](O)C(=O)N[C@@H](Cc2cccs2)C(=O)N[C@H]1Cc1ccc(-c2ccccc2)cc1 [Compound 277] | > 100 µM
39 | O=C1N[C@@H](C(=O)O)Cc2ccc(cc2)NC(=O)[C@H](O)[C@@H](O)C(=O)N[C@@H](Cc2cccs2)C(=O)N[C@H](Cc2ccc(-c3ccccc3)cc2)C(=O)N[C@H]1Cc1ccccc1 [Compound 278] | > 100 µM
